Reference: patent publication US20260265304A1, “PEPTIDE INHIBITORS OF FOCAL ADHESION KINASE ACTIVITY AND USES THEREOF” (Arizona Board of Regents on Behalf of the University of …, priority 2019, published 2026)
“And” between values parts separate entries of the source, which are not always exact repeats. Identical values can stand only once. Like-named read-outs stand apart in the source and are kept apart here. Positions of bridges follow the written chain, without caps; N, C: chain ends. Non-standard residues stand in square brackets, D forms with d. Residues, ends and D or L forms follow the SMILES beside them. *: point of attachment. Myristoyl = CCCCCCCCCCCCCC(=O)*; R8 = C=CCCCCCC[C@@](C)(N)C(=O)O; S5 = C=CCCC[C@](C)(N)C(=O)O

Legend:
[1] = target: T1, FAK FAT domain (biotinylated Avitag-FAT protein) (Homo sapiens, UniProt Q05397); experiment: Surface plasmon resonance (SPR) binding to immobilised FAT protein; conditions: for Kd: FAT protein immobilised, peptide 200 μM-0.01 μM, 1:1 binding model; for binding and inhibitory properties (SPR/FP) in words, compared to 1907: SAR discussion of SPR and FP data
T1 construct: biotinylated Avitag-FAT protein was diluted in running buffer
T1 sequence (Q05397 914-1045 limits assumed): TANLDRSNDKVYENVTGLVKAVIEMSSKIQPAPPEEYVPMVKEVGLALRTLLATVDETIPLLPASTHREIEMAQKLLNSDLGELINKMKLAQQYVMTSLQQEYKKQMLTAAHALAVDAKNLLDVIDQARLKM
Method: SPR binding studies were performed on a ForteBio Pioneer FE SPR system. In brief, a SADH Streptavidin in Dextran Hydrogel biosensor (ForteBio) was docked onto the flow cell and preconditioned with two injections of 10 mM NaOH, 1 M NaCl for 1 min at 50 μL/min. […] Empty channel 2 served as the reference control. After achieving a stable baseline, a concentration series (200 μM-0.01 μM) of peptide was prepared in final running buffer (100 mM Tris-HCl, 200 mM NaCl, 0.05% Tween-20, 5% DMSO) and injected using the OneStep gradient injection method at a flow rate of 75 μL/min. […] Raw SPR data were appropriately processed in Qdat software (ForteBio) by normalizing the baseline prior to injection, aligning the channels, subtraction of the reference channel, and blank subtraction. Kinetic data were fitted to a pseudo-first order 1:1 interaction binding model using to calculate KD. In addition, a steady-state model and Req data points were used to validate the binding affinity. Visual inspection of the SPR sensograms was performed to verify appropriate model fitting, lack of mass transport effects, return to baseline, and lack of irregular kinetics.

[2] = target: T2, FAK FAT domain (paxillin-FAT binding) (Homo sapiens, UniProt Q05397); experiment: Competition fluorescence polarization (FP) assay, inhibition of TAMRA-LD2 binding to FAT; conditions: read-out: FP Ki
T2 construct: FP Buffer containing 20 μM FAT and 0.1 μM TAMRA-LD2
T2 sequence (Q05397 914-1045 limits assumed): T1 sequence (Q05397 914-1045 limits assumed)
Method: The FP assay buffer used was 20 mM Tris, 200 mM NaCl, 0.05% β-me, 0.1% Triton X-100, 5% glycerol, and 1× Halt protease inhibitor cocktail. […] Bodipy TMR FP optical module (2100-4100) was used as the mirror.
Wells with no FAT were used as a baseline value which was subtracted from the raw values to produce ΔmP values. The plate was read at every hour for four hours to test for time differences in IC50. The titration data was processed through GraphPad Prism to produce a dose response curve and a calculated IC50 with standard error (SE). A four-parameter dose-response inhibition model was utilized and the bottom fit was constrained to the lower plateau of the curve. Ki was determined from the following calculation:
P0 is the concentration of free protein and KD is calculated from the saturation curve. 150 is calculated by the following equation:
where PT is the total protein concentration, LT is the total labeled-ligand concentration, P0 is the positive root of P0^2+(KD+LT)*P0−PT, PL0=P−P0, PL50=PL0/2, L0=LT-PL0, and L50=LT-PL50.

Kd ([1]; read-out: SPR KD)	binding and inhibitory properties (SPR/FP) in words, compared to 1907 [1]	Structure (SMILES)	Ki [2]	Kd ([1]; SPR KD)
> 200 µM	–	CC(C)C[C@@H]1NC(=O)[C@H](CCCNC(=N)N)NC(=O)[C@H](CC(=O)O)NC(=O)[C@H](CC(C)C)NC(=O)[C@](C)(NC(=O)[C@H](CO)NC(=O)[C@H](CC(C)C)NC(=O)[C@@H](N)CC(N)=O)CCCCCCC=CCCC[C@@](C)(C(=O)N[C@@H](CC(C)C)C(=O)N[C@@H](CC(N)=O)C(N)=O)NC(=O)[C@H](CC(N)=O)NC(=O)[C@H](CC(C)C)NC1=O [Peptide 1906, H-NLSR8LDRLLNS5LN-NH2] (H-NLS[R8]LDRLLN[S5]LN-NH2; staple 4-11)	> 1250 µM	–
24.8 µM	not as active as 1907	CC(=O)N[C@@H](CC(N)=O)C(=O)N[C@@H](CC(C)C)C(=O)N[C@]1(C)CCCCCCC=CCCC[C@@](C)(C(=O)N[C@@H](CCC(N)=O)C(=O)N[C@@H](CC(C)C)C(=O)N[C@@H](CC(N)=O)C(N)=O)NC(=O)[C@H](CC(C)C)NC(=O)[C@H](CC(C)C)NC(=O)[C@H](CCCNC(=N)N)NC(=O)[C@H](CC(=O)O)NC(=O)[C@H](CC(C)C)NC(=O)[C@H](CCC(N)=O)NC1=O [Peptide 1910, Ac-NLR8QLDRLLS5QLN-NH2] (Ac-NL[R8]QLDRLL[S5]QLN-NH2; staple 3-10)	46.8 µM	–
–	lower activity compared to 1907	CC(=O)N[C@@H](CC(N)=O)C(=O)N[C@@H](CC(C)C)C(=O)NC(C)(C)C(=O)N[C@@H](CCC(=O)O)C(=O)N[C@@H](CC(C)C)C(=O)N[C@@H](CC(=O)O)C(=O)N[C@@H](CCCNC(=N)N)C(=O)N[C@@H](CC(C)C)C(=O)N[C@@H](CC(C)C)C(=O)NC(C)(C)C(=O)N[C@@H](CCC(=O)O)C(=O)N[C@@H](CC(C)C)C(=O)N[C@@H](CC(N)=O)C(N)=O [Peptide 1912, Ac-NLAibELDRLLAibELN-NH2]	–	–
13.7 µM	–	CC(=O)N[C@@H](CC(=O)O)C(=O)N[C@@H](CC(C)C)C(=O)N[C@]1(C)CCCCCCC=CCCC[C@@](C)(C(=O)N[C@@H](CCC(=O)O)C(=O)N[C@@H](CC(C)C)C(=O)N[C@@H](CC(=O)O)C(N)=O)NC(=O)[C@H](CC(C)C)NC(=O)[C@H](CC(C)C)NC(=O)[C@H](CCCNC(=N)N)NC(=O)[C@H](CC(=O)O)NC(=O)[C@H](CC(C)C)NC(=O)[C@H](CCC(=O)O)NC1=O [Peptide 1913, Ac-DLR8ELDRLLS5ELD-NH2] (Ac-DL[R8]ELDRLL[S5]ELD-NH2; staple 3-10)	21.8 µM	–
64.3 µM	limited activity compared to 1907	CC(=O)N[C@@H](CC(N)=O)C(=O)N[C@@H](CC(C)C)C(=O)N[C@@H](CO)C(=O)N[C@@H](CCC(=O)O)C(=O)N[C@]1(C)CCCCCCC=CCCC[C@@](C)(C(=O)N[C@@H](CC(N)=O)C(N)=O)NC(=O)[C@H](CCC(=O)O)NC(=O)[C@H](CC(C)C)NC(=O)[C@H](CC(C)C)NC(=O)[C@H](CC(C)C)NC(=O)[C@H](CCCNC(=N)N)NC(=O)[C@H](CC(=O)O)NC1=O [Peptide 1914, Ac-NLSER8DRLLLES5N-NH2] (Ac-NLSE[R8]DRLLLE[S5]N-NH2; staple 5-12)	–	–

Second part, the compound before the results:

Structure (SMILES)	Kd ([1]; read-out: SPR KD)	binding and inhibitory properties (SPR/FP) in words, compared to 1907 [1]	Ki [2]	Kd ([1]; SPR KD)
CC(=O)N[C@@H](CC(N)=O)C(=O)N[C@@H](CC(C)C)C(=O)N[C@@H](CO)C(=O)N[C@]1(C)CCCCCCC=CCCC[C@@](C)(C(=O)N[C@@H](CC(C)C)C(=O)N[C@@H](CC(N)=O)C(N)=O)NC(=O)[C@H](CC(C)C)NC(=O)[C@H](CC(C)C)NC(=O)[C@H](CC(C)C)NC(=O)[C@H](CCCNC(=N)N)NC(=O)[C@H](CC(=O)O)NC(=O)[C@H](CC(C)C)NC1=O [Peptide 1905, Ac-NLSR8LDRLLLS5LN-NH2] (Ac-NLS[R8]LDRLLL[S5]LN-NH2; staple 4-11)	> 200 µM	no binding and inhibitory properties	–	–
CSCC[C@@H]1NC(=O)[C@H](CC(C)C)NC(=O)[C@H](CCC(=O)O)NC(=O)[C@H](CC(=O)O)NC(=O)[C@H](CC(C)C)NC(=O)[C@H](CCC(=O)O)NC(=O)[C@](C)(NC(=O)[C@@H](NC(=O)[C@H](C)NC(=O)[C@H](CO)NC(C)=O)[C@@H](C)O)CCCCCCC=CCCC[C@@](C)(C(=O)N[C@@H](CO)C(=O)N[C@@H](CC(C)C)C(=O)N[C@@H](CO)C(=O)N[C@@H](CC(=O)O)C(N)=O)NC1=O [Peptide 1916, Ac-SATR8ELDELMS5SLSD-NH2] (Ac-SAT[R8]ELDELM[S5]SLSD-NH2; staple 4-11)	32.3 µM	did not have comparable activity to LD2-derived 1907	47.5 µM	–
CC(=O)N[C@@H](CO)C(=O)N[C@@H](C)C(=O)N[C@H](C(=O)N[C@@H](CCCNC(=N)N)C(=O)N[C@@H](CCC(=O)O)C(=O)N[C@@]1(C)CCCC=CCCC[C@@](C)(C(=O)N[C@@H](C)C(=O)N[C@@H](CO)C(=O)N[C@@H](CC(C)C)C(=O)N[C@@H](CO)C(=O)N[C@@H](CC(=O)O)C(N)=O)NC(=O)[C@H](CC(C)C)NC(=O)[C@H](CCC(=O)O)NC(=O)[C@H](CC(=O)O)NC1=O)[C@@H](C)O [Peptide 1917, Ac-SATRES5DELS5ASLSD-NH2] (Ac-SATRE[S5]DEL[S5]ASLSD-NH2; staple 6-10)	4.9 µM	similar, albeit lower activity than LD2-derived 1907	6.72 µM	–
CC(=O)N[C@@H](CC(N)=O)C(=O)N[C@@H](CC(C)C)C(=O)N[C@@H](CO)C(=O)N[C@@H](CCC(=O)O)C(=O)N[C@@]1(C)CCCC=CCCC[C@@](C)(C(=O)N[C@@H](CC(C)C)C(=O)N[C@@H](CCC(=O)O)C(=O)N[C@@H](CC(C)C)C(=O)N[C@@H](CC(N)=O)C(N)=O)NC(=O)[C@H](CC(C)C)NC(=O)[C@H](CCCNC(=N)N)NC(=O)[C@H](CC(=O)O)NC1=O [Peptide 1919, Ac-NLSES5DRLS5LELN-NH2] (Ac-NLSE[S5]DRL[S5]LELN-NH2; staple 5-9)	68.9 µM	did not show much activity compared to 1907	38.6 µM	–
CC(=O)N[C@@H](CO)C(=O)N[C@@H](CC(C)C)C(=O)NCC(=O)N[C@@H](CO)C(=O)N[C@@H](CC(N)=O)C(=O)N[C@@H](CC(C)C)C(=O)N[C@]1(C)CCCCCCC=CCCC[C@@](C)(C(=O)N[C@@H](CCC(=O)O)C(=O)N[C@@H](CC(C)C)C(=O)N[C@@H](CC(N)=O)C(=O)N[C@@H](C)C(=O)N[C@H](C(=O)N[C@@H](CCC(N)=O)C(=O)N[C@@H](Cc2c[nH]cn2)C(N)=O)C(C)C)NC(=O)[C@H](CC(C)C)NC(=O)[C@H](CC(C)C)NC(=O)[C@H](CCCNC(=N)N)NC(=O)[C@H](CC(=O)O)NC(=O)[C@H](CC(C)C)NC(=O)[C@H](CCC(=O)O)NC1=O [Peptide 1920, Ac-SLGSNLR8ELDRLLS5ELNAVQH-NH2] (Ac-SLGSNL[R8]ELDRLL[S5]ELNAVQH-NH2; staple 7-14)	7 µM and 6.95 µM	–	25 µM	–
CC(=O)N[C@]1(C)CCCCCCC=CCCC[C@@](C)(C(N)=O)NC(=O)[C@H](CC(C)C)NC(=O)[C@H](CC(C)C)NC(=O)[C@H](CCCNC(=N)N)NC(=O)[C@H](CC(=O)O)NC(=O)[C@H](CC(C)C)NC(=O)[C@H](CCC(=O)O)NC1=O [Peptide 2011, Ac-R8ELDRLLS5-NH2] (Ac-[R8]ELDRLL[S5]-NH2; staple 1-8)	–	no binding and inhibitory properties	–	–
CC(=O)N[C@@H](CC(N)=O)C(=O)N[C@@H](CC(C)C)C(=O)N[C@]1(C)CCCCCCC=CCCC[C@@](C)(C(=O)N[C@@H](CCC(=O)O)C(=O)N[C@@H](CCC(=O)O)C(=O)N[C@@H](CC(N)=O)C(N)=O)NC(=O)[C@H](CC(C)C)NC(=O)[C@H](CC(C)C)NC(=O)[C@H](CCCNC(=N)N)NC(=O)[C@H](CC(=O)O)NC(=O)[C@H](CCC(=O)O)NC(=O)[C@H](CCC(=O)O)NC1=O [Peptide 2014, Ac-NLR8EEDRLLS5EEN-NH2] (Ac-NL[R8]EEDRLL[S5]EEN-NH2; staple 3-10)	–	completely no binding and inhibitory properties	–	–
CCCCCCCCCCCCCC(=O)NCCCC[C@@H]1NC(=O)[C@H](CC(=O)O)NC(=O)[C@H](CC(C)C)NC(=O)[C@H](CCC(=O)O)NC(=O)[C@](C)(NC(=O)[C@H](CC(C)C)NC(=O)[C@H](CC(N)=O)NC(C)=O)CCCCCCC=CCCC[C@@](C)(C(=O)N[C@@H](CCC(=O)O)C(=O)N[C@@H](CC(C)C)C(=O)N[C@@H](CC(N)=O)C(N)=O)NC(=O)[C@H](CC(C)C)NC(=O)[C@H](CC(C)C)NC1=O [Peptide 2029, Ac-NLR8ELDK(myristoyl)LLS5ELN-NH2] (Ac-NL[R8]ELDK(Myristoyl)LL[S5]ELN-NH2; staple 3-10)	–	–	–	19.5 µM
